Here are results for four compounds from patent US11685724B2, “Synthetic intermediates for novel cannabinoids and cannabinoid acids and their derivatives” (priority 2018, dated 2023).

SMILES strings stand for the structures. Where two headings read alike, the source gives them in different places.

For one test, the target named is CB1 receptors (Homo sapiens, UniProt P21554). Particulars: cited from earlier work.
In a further test the test system is TRPV1 channels. The experiment in a line: Calcium assay of TRPV1 channel activity in HEK-TRPV1 cells. Format: cell-based. The conditions noted are these: Fluo-4 loaded, 1 mM external calcium chloride, 0-20 seconds baseline, compound added at 20 seconds, FIGS. 1A-1D. The procedure: Molecular Pharmacology, 2016, volume 90, pages 300-308) HEK 293 cells with TRPV1 channels have been used as model systems (P. Geppetti and M. Trevisani, Activation and sensitisation of the vanilloid receptor: role in gastrointestinal inflammation and function, British Journal of Pharmacology, 2004, volume 141, pages 1313-1320);
HEK TRexTRPV1 cultured in DMEM, 10% Fetal Bovine Serum, 2 mM L-glutamine, 10 microgramg/m1 Blasticidin (Calbiochem, San Diego Calif.), […] Zeocin (InvivoGen, San Diego Calif.), followed by inducing indicated transgene expression using 1 microgram/ml Tetracycline for 16-24 hrs. Comparisons made to untransfected HEK cells or HEKTRexTRPV1 with or without induction.
[…] Cells transferred to 96-well plates at 50,000 cells/well and stimulated as indicated. Calcium signals acquired using a Flexstation 3 (Molecular Devices, Sunnydale, USA). Data are analyzed according to the methods in I. Diaz-Franulic, J. Caceres-Molina, R. V. Sepulveda, F. Gonzalez-Nilo, R. Latorre, Structure-Driven Pharmacology of Transient Receptor Potential Channel Vanilloid 1, Molecular Pharmacology, 2016, volume 90, pages 300-8. […]

The target in another test is CB2 (Homo sapiens, UniProt P34972). The conditions noted are these: background statement with literature references; cited from earlier work.
Chain of CB2 (P34972 whole entry, species assumed): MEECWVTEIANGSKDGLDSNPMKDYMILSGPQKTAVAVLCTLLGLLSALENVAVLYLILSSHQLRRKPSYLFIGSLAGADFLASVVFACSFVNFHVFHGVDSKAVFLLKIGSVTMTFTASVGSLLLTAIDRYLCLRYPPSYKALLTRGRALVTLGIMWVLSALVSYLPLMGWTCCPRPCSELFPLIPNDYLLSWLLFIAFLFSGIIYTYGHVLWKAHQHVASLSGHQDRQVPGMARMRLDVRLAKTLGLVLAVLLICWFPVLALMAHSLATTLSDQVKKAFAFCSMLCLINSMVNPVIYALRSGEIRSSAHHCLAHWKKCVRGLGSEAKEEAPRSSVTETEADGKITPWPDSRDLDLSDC
Where [1] appears, read: background statement with literature references.

Chain of CB1 receptors (P21554 whole entry): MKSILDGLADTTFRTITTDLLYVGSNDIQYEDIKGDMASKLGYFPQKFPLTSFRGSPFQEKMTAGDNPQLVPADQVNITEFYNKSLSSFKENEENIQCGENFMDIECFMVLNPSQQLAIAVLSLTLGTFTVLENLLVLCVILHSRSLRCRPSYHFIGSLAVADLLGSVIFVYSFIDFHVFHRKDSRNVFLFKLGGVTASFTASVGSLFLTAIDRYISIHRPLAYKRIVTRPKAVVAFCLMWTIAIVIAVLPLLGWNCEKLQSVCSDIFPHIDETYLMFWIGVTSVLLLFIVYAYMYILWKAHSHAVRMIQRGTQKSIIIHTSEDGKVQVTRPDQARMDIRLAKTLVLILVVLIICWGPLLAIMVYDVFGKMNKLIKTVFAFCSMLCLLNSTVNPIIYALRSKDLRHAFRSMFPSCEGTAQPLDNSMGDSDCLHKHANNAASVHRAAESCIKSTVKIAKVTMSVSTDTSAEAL

Take `C=C(C)[C@@H]1CCC(C)=C[C@H]1c1c(O)cc(CCCCC)cc1O` [cannabidiol (11, CBD), Cannabidiol]: on CB1 receptors (setting [1]), the “CB1 receptor modulation (kind of action)” value is on record as “do not interact significantly”. Moreover, the “biological finger print and dose response on TRPV1 channels (calcium signal), synthesized vs reference standard cannabidiol” value in the test on TRPV1 channels is “same “biological finger print” and dose response”. At CB2, the “CB2 receptor modulation (kind of action)” value was “do not interact significantly”.

On to `C=C(C)[C@@H]1CCC(C)=C[C@H]1c1c(O)cc(CCC)cc1O` [cannabidivarin (12), cannabidivarin], for which the “CB1 receptor modulation (kind of action)” value at CB1 receptors (setting [1]) is on record as “do not interact significantly”. Besides, the “CB2 receptor modulation (kind of action)” value on CB2 is given as “do not interact significantly”.

Take `CCCCCc1cc(O)c2c(c1)OC(C)(C)c1ccc(C)cc1-2` [cannabinol (10), cannabinol]: the “CB1 receptor modulation (kind of action)” value at CB1 receptors was “weak agonist”. Besides, the “CB2 receptor modulation (kind of action)” value at CB2 is reported as “modest agonists”.

As to `CCCc1cc(O)c2c(c1)OC(C)(C)[C@@H]1CCC(C)=C[C@@H]21` [tetrahydrocannabivarin (9), tetrahydrocannabivarin], on CB1 receptors (setting [1]), the “CB1 receptor modulation (kind of action)” value was “weak antagonist”. The “CB2 receptor modulation (kind of action)” value on CB2 is recorded as “modest agonists”.
